# Reference: patent EP4603105A1, “PHARMACEUTICAL COMPOSITION CONTAINING CYCLIC COMPOUND HAVING SELECTIVE KRAS INHIBITORY EFFECT AGAINST HRAS AND NRAS” (CHUGAI SEIYAKU KABUSHIKI KAISHA, priority 2022, dated 2024)
# *1 amine or outer side, *2 acyl side, *3 side chain or, on linkers, in order; H or OH if unused. Where a SMILES comes first, the peptide text is derived from it. Bridges are numbered along the chain shown (N, C = ends). [ ]: non-standard residue; d: D form. The star is where a group is joined. X6 = CC(C)(C)CCN([C@@H](Cc1ccc(C(F)(F)F)cc1)C(=O)[*:2])[*:1]; hPhe(3-Cl-4-CF3) = N[C@@H](CCc1ccc(C(F)(F)F)c(Cl)c1)C(=O)O; NPrPhe(4-CF3) = CCCN[C@@H](Cc1ccc(C(F)(F)F)cc1)C(=O)O; X5 = Cc1ccc(C[C@@H](C(=O)[*:2])N(CCC(C)(C)C)[*:1])cc1; NPrPhe(4-Me) = CCCN[C@@H](Cc1ccc(C)cc1)C(=O)O; 3Oxa8azabicyclo(3.2.1)octane = C1CC2COCC1N2*; NEtPhe(4-Me) = CCN[C@@H](Cc1ccc(C)cc1)C(=O)O; NMeGly(cPent) = CN[C@H](C(=O)O)C1CCCC1; Hyp = O=C(O)[C@@H]1C[C@@H](O)CN1; NMeD = CN[C@@H](CC(=O)O)C(=O)O; NMeL = CN[C@@H](CC(C)C)C(=O)O; Pip = O=C(O)[C@@H]1CCCCN1; Morpholide = C1CN(*)CCO1; NMeA = CN[C@@H](C)C(=O)O; Ac5c = NC1(C(=O)O)CCCC1; Aze = O=C(O)[C@@H]1CCN1; X4 = C1CCC(*)OC1; Sar = CNCC(=O)O
# Tests used:
# HRAS wild-type protein = HRAS wild-type protein (Homo sapiens, UniProt P01112); test: Binding to HRAS by surface plasmon resonance (SPR), KD and KD ratio to KRAS; conditions: ratio of KD for HRAS wild-type protein to KD for KRAS
# How it was run: (§1)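 SPR, 30°C: Avi-biotin RAS·GDP captured via Biotin CAPture (~100–300 RU); running buffer HBS pH 7.4, 1 mM DTT, 10 mM MgCl2, 0.01% Tween 20, 10 µM GDP, 4% DMSO. Single-cycle kinetics, 100 µL/min, 75 s injections; 1:1 model → KD.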
# [1] = biological target: GDP-bound KRAS wild-type protein (Homo sapiens, UniProt P01116); test: Binding to KRAS by surface plasmon resonance (SPR), dissociation constant KD; conditions: 1:1 binding model
# Procedure: Surface plasmon resonance was used to analyze the binding affinity of compounds for KRAS, NRAS, and HRAS. The apparatus used was Biacore 8K, 8K+, or T200 (GE Healthcare), and the running buffer used was HBS (10 mM HEPES-NaOH, 150 mM NaCl, pH 7.4) containing 1 mM DTT, 10 mM MgCl2, 0.01% Tween 20, 10 µM GDP, and 4% DMSO.
# Biotinylated Avi-tag fusion KRAS, NRAS, and HRAS proteins were expressed in E. coli BL21 (DE3) strains, and after cells were homogenized, they were purified using Streptavidin Mutein Matrix and Superdex 75. After purification, GDP-loaded KRAS, NRAS, and HRAS proteins were immobilized on the surface of Sensor Chip CAP (Cytiva) coated with Biotin CAPture Reagent in an immobilization amount of about 100 to 300 RU. Binding of each compound was evaluated by the Single Cycle Kinetics method, and a running buffer or a compound solution was added to the RAS protein non-immobilized surface and the immobilized surface to obtain a binding response. The flow rate was set to 100 µL/min, and in the compound-adding cycle, compound solutions having different concentrations were intermittently added for 75 seconds each, starting from a low concentration. […] In the blank cycle, a running buffer was intermittently added and not the compound solution. The Biotin CAPture Reagent and RAS proteins were immobilized for each cycle, and at the end of each cycle, the sensor chip was regenerated by the regeneration solution appended to the Biotin CAPture Kit (Cytiva). Measurement was carried out at 30°C.
# The resulting sensorgram was subjected to curve fitting based on a 1:1 binding model on Biacore Insight Evaluation Software or T200 Evaluation Software, and thereby the dissociation constant KD of each compound with respect to KRAS, NRAS, and HRAS was determined. […] Blank indicates a compound from which the KD value with respect to NRAS or HRAS was not obtained.
# [2] = biological target: GDP-bound NRAS wild-type protein (Homo sapiens, UniProt P01111); test: Binding to NRAS by surface plasmon resonance (SPR), KD and KD ratio to KRAS; conditions: ratio of KD for GDP-bound NRAS wild-type protein to KD for KRAS
# How it was run: as §1
# [3] = system: human lung cancer strain NCI-H441; assay type: cell-based
# How it was run: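 Proliferation was scored by […] measured after the reagent was added to cultures kept at 37°C in 5% carbon dioxide.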
# GDP-bound KRAS wild-type protein, sequence (P01116 1-188 isoform P01116-2): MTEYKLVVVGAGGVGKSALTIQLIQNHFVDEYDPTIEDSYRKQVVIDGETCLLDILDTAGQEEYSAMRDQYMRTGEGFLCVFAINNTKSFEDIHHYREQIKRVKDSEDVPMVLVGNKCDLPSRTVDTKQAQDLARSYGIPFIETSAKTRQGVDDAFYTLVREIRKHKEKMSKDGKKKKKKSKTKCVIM
# GDP-bound NRAS wild-type protein, sequence (P01111 whole entry): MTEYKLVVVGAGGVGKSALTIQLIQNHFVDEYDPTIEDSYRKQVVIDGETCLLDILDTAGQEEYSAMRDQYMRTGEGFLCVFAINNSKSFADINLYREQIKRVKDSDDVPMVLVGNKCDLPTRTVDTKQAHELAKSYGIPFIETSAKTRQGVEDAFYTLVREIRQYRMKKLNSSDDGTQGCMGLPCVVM
# HRAS wild-type protein, sequence (P01112 whole entry): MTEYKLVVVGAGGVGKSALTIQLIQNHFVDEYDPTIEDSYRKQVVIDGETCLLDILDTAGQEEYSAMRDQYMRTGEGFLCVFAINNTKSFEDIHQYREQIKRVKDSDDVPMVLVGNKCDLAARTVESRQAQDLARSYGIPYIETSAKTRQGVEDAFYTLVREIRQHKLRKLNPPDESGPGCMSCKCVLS
Compound,HRAS /KRAS (HRAS wild-type protein),Kd [1] [nM],NRAS /KRAS [2],IC50 [3] [nM]
CC[C@H](C)[C@@H]1NC(=O)[C@H](CC(C)C)N(C)C(=O)C[C@@H](C(=O)N2CCOCC2)N(C)C(=O)[C@H](C2CCCC2)N(C)C(=O)C2(CCCC2)NC(=O)[C@@H]2C[C@@H](OC3CCCCO3)CN2C(=O)[C@H](CCc2ccc(C(F)(F)F)c(Cl)c2)NC(=O)CN(C)C(=O)[C@H](Cc2ccc(C)cc2)N(CC)C(=O)[C@@H]2CCN2C(=O)[C@H](C)N(C)C1=O (stereo partly shown) [PP0067] ([NMeL]I[NMeA][Aze][NEtPhe(4-Me)][Sar][hPhe(3-Cl-4-CF3)][Hyp](X4)[Ac5c][NMeGly(cPent)][NMeD]-Morpholide; lactam N-11),C (A compound having a KD ratio of 0.1 or more and less than 3 is denoted as C),0.072,C (A compound having a KD ratio of 0.1 or more and less than 3 is denoted as C),2.7
CC[C@H](C)[C@@H]1NC(=O)[C@H](CC(C)C)N(C)C(=O)C[C@@H](C(=O)N2CCOCC2)N(C)C(=O)[C@H](C2CCCC2)N(C)C(=O)C2(CCCC2)NC(=O)[C@@H]2C[C@@H](OC3CCCCO3)CN2C(=O)[C@H](CCc2ccc(C(F)(F)F)c(Cl)c2)NC(=O)CN(C)C(=O)[C@H](Cc2ccc(C)cc2)N(CC)C(=O)CN(C)C(=O)CN(C)C1=O (stereo partly shown) [PP0068] ([NMeL]I[Sar][Sar][NEtPhe(4-Me)][Sar][hPhe(3-Cl-4-CF3)][Hyp](X4)[Ac5c][NMeGly(cPent)][NMeD]-Morpholide; lactam N-11),C (A compound having a KD ratio of 0.1 or more and less than 3 is denoted as C),0.14,C (A compound having a KD ratio of 0.1 or more and less than 3 is denoted as C),9.1
CCCN1C(=O)[C@@H]2CCN2C(=O)[C@@H]2CCCCN2C(=O)[C@H]([C@@H](C)CC)NC(=O)[C@H](CC(C)C)N(C)C(=O)C[C@@H](C(=O)N2CCOCC2)N(C)C(=O)[C@H](C2CCCC2)N(C)C(=O)C2(CCCC2)NC(=O)[C@@H]2CCCN2C(=O)[C@H](CCc2ccc(C(F)(F)F)c(Cl)c2)NC(=O)CN(C)C(=O)[C@@H]1Cc1ccc(C)cc1 [PP0070] ([NMeL]I[Pip][Aze][NPrPhe(4-Me)][Sar][hPhe(3-Cl-4-CF3)]P[Ac5c][NMeGly(cPent)][NMeD]-Morpholide; lactam N-11),B (a compound having 3 or more and less than 10 is denoted as B),0.16,C (A compound having a KD ratio of 0.1 or more and less than 3 is denoted as C),2.1
CCCN1C(=O)[C@@H]2CCN2C(=O)[C@@H]2CCCCN2C(=O)[C@H]([C@@H](C)CC)NC(=O)[C@H](CC(C)C)N(C)C(=O)C[C@@H](C(=O)N2CCOCC2)N(C)C(=O)[C@H](C2CCCC2)N(C)C(=O)C2(CCCC2)NC(=O)[C@@H]2CCCN2C(=O)[C@H](CCc2ccc(C(F)(F)F)c(Cl)c2)NC(=O)CN(C)C(=O)[C@@H]1Cc1ccc(C(F)(F)F)cc1 [PP0077] ([NMeL]I[Pip][Aze][NPrPhe(4-CF3)][Sar][hPhe(3-Cl-4-CF3)]P[Ac5c][NMeGly(cPent)][NMeD]-Morpholide; lactam N-11),B (a compound having 3 or more and less than 10 is denoted as B),0.2,C (A compound having a KD ratio of 0.1 or more and less than 3 is denoted as C),5.3
CC[C@H](C)[C@@H]1NC(=O)[C@H](CC(C)C)N(C)C(=O)C[C@@H](C(=O)N2CCOCC2)N(C)C(=O)[C@H](C2CCCC2)N(C)C(=O)C2(CCCC2)NC(=O)[C@@H]2CCCN2C(=O)[C@H](CCc2ccc(C(F)(F)F)c(Cl)c2)NC(=O)CN(C)C(=O)[C@H](Cc2ccc(C)cc2)N(CCC(C)(C)C)C(=O)[C@@H]2CCN2C(=O)[C@H](C)N(C)C1=O [PP0087] ([NMeL]I[NMeA][Aze][X5][Sar][hPhe(3-Cl-4-CF3)]P[Ac5c][NMeGly(cPent)][NMeD]-Morpholide; lactam N-11),C (A compound having a KD ratio of 0.1 or more and less than 3 is denoted as C),0.75,C (A compound having a KD ratio of 0.1 or more and less than 3 is denoted as C),24
CC[C@H](C)[C@@H]1NC(=O)[C@H](CC(C)C)N(C)C(=O)C[C@@H](C(=O)N2CCOCC2)N(C)C(=O)[C@H](C2CCCC2)N(C)C(=O)C2(CCCC2)NC(=O)[C@@H]2CCCN2C(=O)[C@H](CCc2ccc(C(F)(F)F)c(Cl)c2)NC(=O)CN(C)C(=O)[C@H](Cc2ccc(C(F)(F)F)cc2)N(CCC(C)(C)C)C(=O)[C@@H]2CCN2C(=O)[C@H](C)N(C)C1=O [PP0113] ([NMeL]I[NMeA][Aze][X6][Sar][hPhe(3-Cl-4-CF3)]P[Ac5c][NMeGly(cPent)][NMeD]-Morpholide; lactam N-11),B (a compound having 3 or more and less than 10 is denoted as B),0.75,C (A compound having a KD ratio of 0.1 or more and less than 3 is denoted as C),7.1
CC[C@H](C)[C@@H]1NC(=O)[C@H](CC(C)C)N(C)C(=O)C[C@@H](C(=O)N2CCOCC2)N(C)C(=O)[C@H](C2CCCC2)N(C)C(=O)C2(CCCC2)NC(=O)[C@@H]2CCCN2C(=O)[C@H](CCc2ccc(C(F)(F)F)c(Cl)c2)NC(=O)CN(C)C(=O)[C@H](Cc2ccc(C(F)(F)F)cc2)N(CCC(C)(C)C)C(=O)CN(C)C(=O)CN(C)C1=O [PP0127] ([NMeL]I[Sar][Sar][X6][Sar][hPhe(3-Cl-4-CF3)]P[Ac5c][NMeGly(cPent)][NMeD]-Morpholide; lactam N-11),C (A compound having a KD ratio of 0.1 or more and less than 3 is denoted as C),0.92,C (A compound having a KD ratio of 0.1 or more and less than 3 is denoted as C),25.3
CCCN1C(=O)CN(C)C(=O)[C@@H]2CCN2C(=O)[C@H]([C@@H](C)CC)NC(=O)[C@H](CC(C)C)N(C)C(=O)C[C@@H](C(=O)N2CCOCC2)N(C)C(=O)[C@H](C2CCCC2)N(C)C(=O)C2(CCCC2)NC(=O)[C@@H]2CCCN2C(=O)[C@H](CCc2ccc(C(F)(F)F)c(Cl)c2)NC(=O)CN(C)C(=O)[C@@H]1Cc1ccc(C(F)(F)F)cc1 [PP0158] ([NMeL]I[Aze][Sar][NPrPhe(4-CF3)][Sar][hPhe(3-Cl-4-CF3)]P[Ac5c][NMeGly(cPent)][NMeD]-Morpholide; lactam N-11),B (a compound having 3 or more and less than 10 is denoted as B),0.85,A (a compound having 10 or more and less than 20 is denoted as A),15.4
CCCN1C(=O)[C@@H]2CCN2C(=O)[C@@H]2CCN2C(=O)[C@H]([C@@H](C)CC)NC(=O)[C@H](CC(C)C)N(C)C(=O)C[C@@H](C(=O)N2CCOCC2)N(C)C(=O)[C@H](C2CCCC2)N(C)C(=O)C2(CCCC2)NC(=O)[C@@H]2CCCN2C(=O)[C@H](CCc2ccc(C(F)(F)F)c(Cl)c2)NC(=O)CN(C)C(=O)[C@@H]1Cc1ccc(C(F)(F)F)cc1 [PP0168] ([NMeL]I[Aze][Aze][NPrPhe(4-CF3)][Sar][hPhe(3-Cl-4-CF3)]P[Ac5c][NMeGly(cPent)][NMeD]-Morpholide; lactam N-11),B (a compound having 3 or more and less than 10 is denoted as B),0.67,C (A compound having a KD ratio of 0.1 or more and less than 3 is denoted as C),26.6
CCCN1C(=O)[C@@H]2CCN2C(=O)[C@H](C)N(C)C(=O)[C@H]([C@@H](C)CC)NC(=O)[C@H](CC(C)C)N(C)C(=O)C[C@@H](C(=O)N2C3CCC2COC3)N(C)C(=O)[C@H](C2CCCC2)N(C)C(=O)C2(CCCC2)NC(=O)[C@@H]2CCCN2C(=O)[C@H](CCc2ccc(C(F)(F)F)c(Cl)c2)NC(=O)CN(C)C(=O)[C@@H]1Cc1ccc(C(F)(F)F)cc1 [PP0182] ([NMeL]I[NMeA][Aze][NPrPhe(4-CF3)][Sar][hPhe(3-Cl-4-CF3)]P[Ac5c][NMeGly(cPent)][NMeD]-{3Oxa8azabicyclo(3.2.1)octane}; lactam N-11),B (a compound having 3 or more and less than 10 is denoted as B),0.88,C (A compound having a KD ratio of 0.1 or more and less than 3 is denoted as C),6.2
